The values below come from patent US20230295157A1, “3-(1H-IMIDAZOL-2-YL)-2,3,8,8A-TETRAHYDROINDOLIZIN-5(1H)-ONE DERIVATIVES USEFUL AS FACTOR XIA INHIBITORS” (JANSSEN PHARMACEUTICA NV, priority 2020, published 2023).

Assay [1] addresses Factor XIa (Homo sapiens (Human), UniProt P03951). Put plainly: Factor XIa inhibition assay (FLINT) utilizing a fluorophore-quencher pair peptide substrate. As to conditions: 30 min preincubation, kinetic reads over 30 min, read-out: FXIa Kin Inh IC50. The assay is classed as biochemical. The gist of the method:
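FXIa ([…]) preincubated 30 min with compound (11-point 3-fold dilution, top 100 nM, 2% DMSO), then 15 μM quenched FXI Arg146-based peptide added; Tris pH 7.5, CaCl2, BSA, CHAPS. Fluorescence 485/520 nm read kinetically every 5 min over 30 min at RT; IC50 by 4-parameter fit.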

Assay [2] addresses human plasma kallikrein (Homo sapiens (Human), UniProt P03952). Put plainly: Kallikrein inhibition assay (FLINT) utilizing a quenched AMC peptide substrate. The assay is classed as biochemical. As to conditions: 30 min preincubation, kinetic reads over 30 min, Z-Gly-Pro-Arg-AMC substrate 50 μM; read-out: Kallikrein Kin Inh IC50. Summed up: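 Enzyme (2 nM final) pre-incubated 30 min at room temperature with compound (11-point, 3-fold, top 1 μM, 2% DMSO), then 50 μM Z-Gly-Pro-Arg-AMC added in Tris pH 7.5 buffer. Kinetic fluorescence 340/440 nm every 5 min over 30 min; IC50 from 4-parameter logistic fit.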

Setting [3] is: 5Fam-KLTRAETV-K5Tamra substrate 15 μM.
Where [4] appears, read: 5Fam-[…]-K5Tamra substrate 15 μM.

Structures are written as SMILES. pIC50: −log10 of the molar value. Where two headings read alike, the source gives them in different places.

Sequence of Factor XIa (P03951 388-625): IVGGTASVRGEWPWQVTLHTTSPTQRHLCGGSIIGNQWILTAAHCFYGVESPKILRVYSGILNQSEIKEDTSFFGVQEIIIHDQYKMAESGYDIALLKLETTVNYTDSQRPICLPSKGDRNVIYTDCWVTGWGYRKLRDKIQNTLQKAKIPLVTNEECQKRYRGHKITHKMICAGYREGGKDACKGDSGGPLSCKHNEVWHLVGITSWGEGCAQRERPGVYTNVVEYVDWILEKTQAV
Sequence of Factor XIa (P03951 19-387 partner): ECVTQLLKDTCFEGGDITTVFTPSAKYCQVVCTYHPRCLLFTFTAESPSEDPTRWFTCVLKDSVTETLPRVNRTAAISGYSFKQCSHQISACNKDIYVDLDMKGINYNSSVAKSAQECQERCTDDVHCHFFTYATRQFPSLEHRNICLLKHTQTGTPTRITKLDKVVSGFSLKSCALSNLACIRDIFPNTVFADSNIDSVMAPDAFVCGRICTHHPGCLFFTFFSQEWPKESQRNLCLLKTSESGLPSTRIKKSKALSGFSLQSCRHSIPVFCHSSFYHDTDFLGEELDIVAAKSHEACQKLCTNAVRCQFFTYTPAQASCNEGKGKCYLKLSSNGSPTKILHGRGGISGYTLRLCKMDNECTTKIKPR
Sequence of human plasma kallikrein (P03952 391-638): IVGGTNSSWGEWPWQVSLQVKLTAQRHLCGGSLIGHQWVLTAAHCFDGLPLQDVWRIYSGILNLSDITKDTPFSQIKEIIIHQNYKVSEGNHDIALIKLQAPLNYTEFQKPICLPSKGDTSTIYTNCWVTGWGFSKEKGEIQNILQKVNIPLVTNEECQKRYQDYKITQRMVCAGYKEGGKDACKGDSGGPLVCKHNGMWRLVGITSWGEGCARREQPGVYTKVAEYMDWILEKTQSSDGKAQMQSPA
Sequence of human plasma kallikrein (P03952 20-390 partner): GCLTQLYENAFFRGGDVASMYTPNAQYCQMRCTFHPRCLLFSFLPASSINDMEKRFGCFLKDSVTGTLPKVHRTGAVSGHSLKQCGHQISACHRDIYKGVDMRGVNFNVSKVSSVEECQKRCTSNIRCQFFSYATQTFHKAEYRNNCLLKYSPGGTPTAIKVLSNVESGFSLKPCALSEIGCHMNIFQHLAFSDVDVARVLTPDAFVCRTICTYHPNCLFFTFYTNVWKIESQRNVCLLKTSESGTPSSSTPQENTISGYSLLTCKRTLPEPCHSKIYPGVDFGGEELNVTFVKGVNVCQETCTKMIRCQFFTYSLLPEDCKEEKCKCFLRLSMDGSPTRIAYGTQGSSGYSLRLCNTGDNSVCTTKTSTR

Turning to `[2H]c1cc(N)nc(F)c1-c1[nH]c([C@@H]2CC[C@@H]3CC(c4c(-n5cnnn5)ccc(Cl)c4F)=CC(=O)N32)nc1[2H]` [Example 148, (3S,8aR)-3-[5-(6-amino-4-deuterio-2-fluoro-3-pyridyl)-4-deuterio-1H-imidazol-2-yl]-7-[3-chloro-2-fluoro-6-(tetrazol-1-yl)phenyl]-2,3,8,8a-tetrahydro-1H-indolizin-5-one], the values for the pIC50 in assay [1] (setting [3]) and in assay [2] were 9.22 and 8.07, respectively.

In the case of `[2H]c1nc([C@@H]2CC[C@@H]3CC(c4c(-n5cnnn5)ccc(Cl)c4F)=CC(=O)N32)[nH]c1-c1c(F)nc(N)c([2H])c1[2H]` [Example 149, (3S,8aR)-3-[5-(6-amino-4,5-dideuterio-2-fluoro-3-pyridyl)-4-deuterio-1H-imidazol-2-yl]-7-[3-chloro-2-fluoro-6-(tetrazol-1-yl)phenyl]-2,3,8,8a-tetrahydro-1H-indolizin-5-one], the figures for the negative logarithm of the IC50 (pIC50) in assay [1] (setting [3]) and in assay [2] were 9.30 and 8.12, respectively.

For the molecule `[2H]c1cc(N)nc(F)c1-c1cnc([C@@H]2CC[C@@H]3CC(c4c(-n5cnnn5)ccc(Cl)c4F)=CC(=O)N32)[nH]1` [Example 150, (3S,8aR)-3-[5-(6-amino-4-deuterio-2-fluoro-3-pyridyl)-1H-imidazol-2-yl]-7-[3-chloro-2-fluoro-6-(tetrazol-1-yl)phenyl]-2,3,8,8a-tetrahydro-1H-indolizin-5-one], the negative-log IC50 (pIC50) in assay [1] (setting [3]) is 9.22; in assay [2] it was 8.07.

As for `[2H]c1c(N)nc(F)c(-c2cnc([C@@H]3CC[C@@H]4CC(c5c(-n6cnnn6)ccc(Cl)c5F)=CC(=O)N43)[nH]2)c1[2H]` [Example 151, (3S,8aR)-3-[5-(6-amino-4,5-dideuterio-2-fluoro-3-pyridyl)-1H-imidazol-2-yl]-7-[3-chloro-2-fluoro-6-(tetrazol-1-yl)phenyl]-2,3,8,8a-tetrahydro-1H-indolizin-5-one], the negative-log IC50 (pIC50) in assay [1] (setting [3]) is 9.22; in assay [2] it was 8.05.

With `[2H]c1cc(Cl)c(F)c(C2=CC(=O)N3[C@H](CC[C@H]3c3nc(-c4ccc(N)nc4F)c[nH]3)C2)c1-n1cnnn1` [Example 153, (3S,8aR)-3-[4-(6-amino-2-fluoro-3-pyridyl)-1H-imidazol-2-yl]-7-[3-chloro-5-deuterio-2-fluoro-6-(tetrazol-1-yl)phenyl]-2,3,8,8a-tetrahydro-1H-indolizin-5-one], the values for the negative logarithm of the IC50 (pIC50) in assay [1] (setting [3]) and in assay [2] were 9.30 and 8.09, respectively.

As to `COCCNc1nccc(-c2cnc([C@@H]3CCC4CC(c5c(-n6cnnn6)ccc(Cl)c5F)=CC(=O)N43)[nH]2)c1F` (stereo partly drawn) [Example 161, (3S)-7-(3-chloro-2-fluoro-6-(1H-tetrazol-1-yl)phenyl)-3-(5-(3-fluoro-2-((2-methoxyethyl)amino)pyridin-4-yl)-1H-imidazol-2-yl)-2,3,8,8a-tetrahydroindolizin-5(1H)-one], the negative-log IC50 (pIC50) in assay [1] (setting [3]) is 9.30; in assay [2] it was 8.72.

As to `CC(C)(O)COc1nccc(-c2cnc([C@@H]3CC[C@@H]4CC(c5c(-n6cnnn6)ccc(Cl)c5F)=CC(=O)N43)[nH]2)c1F` [Example 166, (3S,8aR)-7-[3-chloro-2-fluoro-6-(tetrazol-1-yl)phenyl]-3-[5-[3-fluoro-2-(2-hydroxy-2-methyl-propoxy)-4-pyridyl]-1H-imidazol-2-yl]-2,3,8,8a-tetrahydro-1H-indolizin-5-one], the pIC50 in assay [1] (setting [3]) was 9.10; in assay [2], 8.18.

For the molecule `Nc1ccc(-c2cnc([C@@H]3CC[C@@H]4CC(c5c(-n6cnnn6)ccc(Cl)c5F)=CC(=O)N43)[nH]2)c(C(F)(F)F)n1` [Example 167, (3S,8aR)-3-(5-(6-amino-2-(trifluoromethyl)pyridin-3-yl)-1H-imidazol-2-yl)-7-(3-chloro-2-fluoro-6-(1H-tetrazol-1-yl)phenyl)-2,3,8,8a-tetrahydroindolizin-5(1H)-one], the figures for the negative-log IC50 (pIC50) in assay [1] (setting [3]) and in assay [2] were 7.51 and 6.43, respectively.

Turning to `O=C1C=C(c2c(-n3cnnn3)ccc(Cl)c2F)C[C@H]2CC[C@@H](c3nc(Cl)c(-c4ccnc([C@@H](O)C(F)(F)F)c4)[nH]3)N12` [Example 173, (3S,8aR)-7-(3-chloro-2-fluoro-6-(1H-tetrazol-1-yl)phenyl)-3-(4-chloro-5-(2-((R)-2,2,2-trifluoro-1-hydroxyethyl)pyridin-4-yl)-1H-imidazol-2-yl)-2,3,8,8a-tetrahydroindolizin-5(1H)-one], the pIC50 in assay [1] (setting [3]) is 8.77; in assay [2], 8.15.

On to `N#CCc1nccc(-c2c[nH]c([C@@H]3CC[C@@H]4CC(c5c(-n6cnnn6)ccc(Cl)c5F)=CC(=O)N43)n2)c1F` [Example 176, 2-(4-(2-((3S,8aR)-7-(3-chloro-2-fluoro-6-(1H-tetrazol-1-yl)phenyl)-5-oxo-1,2,3,5,8,8a-hexahydroindolizin-3-yl)-1H-imidazol-4-yl)-3-fluoropyridin-2-yl)acetonitrile], for which the pIC50 in assay [1] (setting [3]) was 8.40; in assay [2], 7.55.

For the molecule `COCc1nccc(-c2c[nH]c([C@@H]3CCC4CC(c5c(-n6cnnn6)ccc(Cl)c5F)=CC(=O)N43)n2)c1F` (stereo partly drawn) [Example 177, (3S)-7-(3-chloro-2-fluoro-6-(1H-tetrazol-1-yl)phenyl)-3-(4-(3-fluoro-2-(methoxymethyl)pyridin-4-yl)-1H-imidazol-2-yl)-2,3,8,8a-tetrahydroindolizin-5(1H)-one], the pIC50 in assay [1] (setting [3]) is 8.51; in assay [2], 7.67.

In the case of `O=C1C=C(c2c(-n3cnnn3)ccc(Cl)c2F)C[C@H]2CC[C@H](c3nc(Cl)c(-c4ccnc(C5(O)CC5)c4)[nH]3)N12` [Example 178, (3R,8aR)-7-(3-chloro-2-fluoro-6-(1H-tetrazol-1-yl)phenyl)-3-(4-chloro-5-(2-(1-hydroxycyclopropyl)pyridin-4-yl)-1H-imidazol-2-yl)-2,3,8,8a-tetrahydroindolizin-5(1H)-one], the negative-log IC50 (pIC50) in assay [1] (setting [3]) was 9.40; in assay [2] it was 8.96.

For `O=C1C=C(c2c(-n3cnnn3)ccc(Cl)c2F)C[C@H]2CC[C@H](c3nc(F)c(-c4ccnc(C5(O)CC5)c4)[nH]3)N12` [Example 179, (3R,8aR)-7-(3-chloro-2-fluoro-6-(1H-tetrazol-1-yl)phenyl)-3-(4-fluoro-5-(2-(1-hydroxycyclopropyl)pyridin-4-yl)-1H-imidazol-2-yl)-2,3,8,8a-tetrahydroindolizin-5(1H)-one], the results for the pIC50 in assay [1] (setting [3]) and in assay [2] were 9.30 and 8.85, respectively.

On to `COCCNC(=O)c1nccc(-c2cnc([C@@H]3CC[C@@H]4CC(c5c(-n6cnnn6)ccc(Cl)c5F)=CC(=O)N43)[nH]2)c1F` [Example 180, 4-(2-((3S,8aR)-7-(3-chloro-2-fluoro-6-(1H-tetrazol-1-yl)phenyl)-5-oxo-1,2,3,5,8,8a-hexahydroindolizin-3-yl)-1H-imidazol-5-yl)-3-fluoro-N-(2-methoxyethyl)picolinamide], for which the results for the pIC50 in assay [1] (setting [3]) and in assay [2] were 8.07 and 7.48, respectively.

Take `NC(=O)c1nccc(-c2cnc([C@@H]3CC[C@@H]4CC(c5c(-n6cnnn6)ccc(Cl)c5F)=CC(=O)N43)[nH]2)c1F` [Example 181, 4-(2-((3S,8aR)-7-(3-chloro-2-fluoro-6-(1H-tetrazol-1-yl)phenyl)-5-oxo-1,2,3,5,8,8a-hexahydroindolizin-3-yl)-1H-imidazol-5-yl)-3-fluoropicolinamide]: the figures for the pIC50 in assay [1] (setting [3]) and in assay [2] were 8.08 and 7.75, respectively.

For `O=C(O)c1nccc(-c2cnc([C@@H]3CC[C@@H]4CC(c5c(-n6cnnn6)ccc(Cl)c5F)=CC(=O)N43)[nH]2)c1F` [Example 182, 4-(2-((3S,8aR)-7-(3-chloro-2-fluoro-6-(1H-tetrazol-1-yl)phenyl)-5-oxo-1,2,3,5,8,8a-hexahydroindolizin-3-yl)-1H-imidazol-5-yl)-3-fluoropicolinic acid], the values for the pIC50 in assay [1] (setting [3]) and in assay [2] were 9.40 and 7.85, respectively.

Consider `O=C1C=C(c2c(-n3cnnn3)ccc(Cl)c2F)C[C@H]2CC[C@@H](c3ncc(-c4ccnc(OCC5(O)CC5)c4F)[nH]3)N12` [Example 183, (3S,8aR)-7-(3-chloro-2-fluoro-6-(1H-tetrazol-1-yl)phenyl)-3-(5-(3-fluoro-2-((1-hydroxycyclopropyl)methoxy)pyridin-4-yl)-1H-imidazol-2-yl)-2,3,8,8a-tetrahydroindolizin-5(1H)-one], for which the pIC50 in assay [1] (setting [4]) was 9.22; in assay [2] it was 8.42.

`[2H]C([2H])(O)c1nccc(-c2nc([C@@H]3CC[C@@H]4CC(c5c(-n6cnnn6)ccc(Cl)c5F)=CC(=O)N43)[nH]c2Br)c1F` [Example 184, (3S,8aR)-3-(5-bromo-4-(3-fluoro-2-(hydroxymethyl-d2)pyridin-4-yl)-1H-imidazol-2-yl)-7-(3-choro-2-fluoro-6-(1H-tetrazol-1-yl)phenyl)-2,3,8,8a-tetrahydroindolizin-5(1H)-one]: the negative-log IC50 (pIC50) in assay [1] (setting [4]) was 8.14; in assay [2], 6.68.

As for `C[C@@H](O)c1nccc(-c2cnc([C@@H]3CC[C@@H]4CC(c5c(-n6cnnn6)ccc(Cl)c5F)=CC(=O)N43)[nH]2)c1F` [Example 185, (3S,8aR)-7-(3-chloro-2-fluoro-6-(1H-tetrazol-1-yl)phenyl)-3-(5-(3-fluoro-2-((R)-1-hydroxyethyl)pyridin-4-yl)-1H-imidazol-2-yl)-2,3,8,8a-tetrahydroindolizin-5(1H)-one], the negative logarithm of the IC50 (pIC50) was 8.19 in assay [1] (setting [3]) and 7.47 in assay [2].
